Source: patent US11535632B2, “Solid forms of an S1P-receptor modulator” (ESCAPE Bio, Inc., priority 2019, dated 2022)
Entries after “also recorded” stand apart in the source; their conditions may differ.

Assay: Gravimetric vapor sorption (GVS)
Format: physicochemical
Experimental: Sorption isotherms were obtained using a SMS DVS Intrinsic moisture sorption analyzer, controlled by DVS Intrinsic Control software. The sample temperature was maintained at 25° C. by the instrument controls. The humidity was controlled by mixing streams of dry and wet nitrogen, with a total flow rate of 200 ml/min. The relative humidity was measured by a calibrated Rotronic probe (dynamic range of 1.0-100% RH), located near the sample. The weight change, (mass relaxation) of the sample as a function of % RH was constantly monitored by a microbalance (accuracy ±0.005 mg).
Typically, 5-30 mg of sample was placed in a tared mesh stainless steel basket under ambient conditions. The sample was loaded and unloaded at 40% RH and 25° C. (typical room conditions). A moisture sorption isotherm was performed as outlined below (2 scans per complete cycle). The standard isotherm was performed at 25° C. at 10% RH intervals over a 0-90% RH range. Typically, a double cycle (4 scans) was carried out. Data analysis was carried out within Microsoft Excel using the DVS Analysis Suite.

Relative humidity at which the monohydrate is stable (readily rehydrates after water loss): > 20 % RH
Structure (SMILES): O=C(O)[C@H]1C[C@@H](N2CCc3oc(-c4ccc(OCc5ccc(Cl)cc5)cc4)nc3C2)C1 [Form B, (1s,3s)-3-(2-(4-((4-chlorobenzyl)oxy)phenyl)-6,7-dihydrooxazolo[4,5-c]pyridin-5(4H)-yl)cyclobutane-1-carboxylic acid]
XRPD post GVS analysis: Unchanged by XRPD post analysis; also recorded: Sample unchanged by XRPD
